Assay results taken from US20140080847A1, “Compositions and Methods for Affecting Energy Balance, Body Composition, Fitness, and Well-Being” (OEJM Products Holdings, LLC, priority 2012, published 2014).

What was measured:
[1] = Acute toxicity and tolerance (MTD) of a single oral dose in New Zealand white rabbits; assay type: in vivo, rabbit; details: both sexes, New Zealand white, in vivo; rabbit, single oral dose
Method: (§1) The maximum tolerated dose (MTD) of orally administered 1,3-DMPA and 1,4-DMPA was determined in New Zealand white rabbits and Wistar rats.
(§2) Determination of MTD of orally-administered 1,3-DMPA in New Zealand white rabbits: Twenty-four rabbits (twelve male, twelve female) were quarantined for at least seven days and then were randomly divided into four groups with six animals (3 male and 3 female) in each group. […] Animals were observed daily for fourteen days following administration. Each animal's body weight, food intake, mortality, and natural orifices were monitored. Clinical observations included skin condition, gait, movement, neurological disorders, eye condition, feces, convulsions, tremors, activity rate, restlessness, grooming, sleep, aggressiveness, salivation, diarrhea, respiration, appetite, thirst and urine conditions. Other observations included fur condition, mucous membranes, presence or absence of secretions and excretions and autonomic activity, lacrimation, piloerection, pupil size, posture, arched back, distended abdomen, fur, mucous membrane, presence or absence of secretions, tail elevation, motor activity, urination and defecation, and response to handling as well as the presence of clonic or tonic movements, repetitive circling, bizarre behavior, self-mutilation and walking backwards. At the conclusion of the fourteen day monitoring period, gross pathological examination was carried out on all animals. Heart, lung, liver, kidneys, spleen, stomach, large intestine, small intestine, brain and skin were examined for any macroscopic lesions.
(§3) Determination of MTD of orally-administered 1,4-DMPA in New Zealand white rabbits: Thirty rabbits (fifteen male, fifteen female) were quarantined for at least seven days and then were randomly divided into five groups with six animals (3 male and 3 female) in each group. […] Animals were observed daily for fourteen days following administration. Each animal's body weight, food intake, mortality, and natural orifices were monitored. As above, clinical observations included observation of natural orifices for any abnormal secretions and monitoring for the presence or absence of secretions and excretions, monitoring of mucous membranes, fur and skin condition, mortality, gait, posture, arched back, distended abdomen, movement and motor activity, neurological disorders, eye condition and pupil size, feces, convulsions, tremors, tail elevation, activity rate, restlessness, grooming, sleep, aggressiveness, salivation, diarrhea, respiration, appetite, thirst and urine conditions, autonomic activity, lacrimation, piloerection, response to handling, as well as the presence of clonic or tonic movements, repetitive circling, bizarre behavior, self-mutilation and walking backwards. At the conclusion of the fourteen day monitoring period, gross pathological examination was carried out on all animals. Heart, lung, liver, kidneys, spleen, stomach, large intestine, small intestine, brain and skin were examined for any macroscopic lesions.

[2] = system: New Zealand white rabbits; experiment: as above; assay type: in vivo, rabbit
Method: as §1, §2, §3

[3] = Acute toxicity and tolerance (MTD) of a single oral dose in Wistar rats; assay type: in vivo, rat; details: both sexes, Wistar, in vivo; rat, single oral dose
Method: as §1
(§4) Determination of MTD of orally-administered 1,3-DMPA in Wistar rats: The same general methods and procedures were followed as described above. This study involved forty animals randomly divided into four groups of ten animals (five male, five female) in each group. […] The MTD of a single oral dose of 1,3-DMPA was determined to be between 125 mg/kg and 250 mg/kg.
as §4, with “1,4-DMPA” for “1,3-DMPA”, “group. The groups were treated as follows: Group I (vehicle control—water), Group II (75 mg/kg), Group III (150 mg/kg), and Group IV (300 mg/kg). […] Gross pathological changes were not observed in the treated groups during necropsy.” for “group.”, “150” for “125”, “300 mg/kg in Wistar rats.” for “250 mg/kg.”

[4] = system: Wistar rats; experiment: as above; assay type: in vivo, rat
Method: as §1, §4
as §4, with “1,4-DMPA” for “1,3-DMPA”, “group. The groups were treated as follows: Group I (vehicle control—water), Group II (75 mg/kg), Group III (150 mg/kg), and Group IV (300 mg/kg). […] Gross pathological changes were not observed in the treated groups during necropsy.” for “group.”, “150” for “125”, “300 mg/kg in Wistar rats.” for “250 mg/kg.”

[5] = system: human(s); experiment: Comparative effects of 1,3-DMPA and 1,4-DMPA compounds in humans (self-administration); assay type: in vivo
Method: The compounds 1,3-DMPA, racemic 1,4-DMPA, (R)-1,4-DMPA, and (S)-1,4-DMPA were administered to human(s). A non-smoking person of normal weight ingested 40 mg 1,3-DMPA as part of a dietary supplement (dietary ingredients: arginine α-ketoglutarate, creatine monohydrate, β-alanine, caffeine, 1,3-dimethylpentylamine HCL, schisandra cinensis (berry) extract (standardized for schizandrol A)); powder form), self-administered daily for at least seven days. […] To compare the effects of 1,3-DMPA to the effects of 1,4-DMPA, this individual later ingested 1,4-DMPA (racemic) for at least seven days at a dose of 60 mg per day, combined with 250 mg caffeine.
To compare the effects of (R)-1,4-DMPA, and (S)-1,4-DMPA, the individual described above ingested each enantiomer separately. Starting dose was ˜20 mg per day, which was increased to 30 mg per day if treatment was continued. Doses were combined with 250 mg caffeine as described above. […] The dose was increased to 30 mg per day; the total duration of treatment was at least three weeks. […] Ingestion of (S)-1,4-DMPA (25-30 mg per day) with caffeine produced different effects. […] The individual ceased self-administering (S)-1,4-DMPA after several days of experiencing the latter effects.

[6] = system: cats and dogs; details: early animal studies; cited from earlier work
[7] = system: humans; details: cited from earlier work
[8] = male, 60 mg per day with 250 mg caffeine, at least seven days
[9] = male, 40 mg daily in a dietary supplement containing caffeine, at least seven days
[10] = male, 20 then 30 mg per day with 250 mg caffeine, at least three weeks
[11] = male, starting dose 20 mg per day with 250 mg caffeine
[12] = male, 25-30 mg per day with caffeine, several days

For `CC(C)CCC(C)N` (racemic) [1,4-DMPA, 1,4-dimethylpentylamine], the MTD at 14 days [1] was 250 to 350 mg/kg, the clinical signs ([2]; rabbit, 250 mg/kg and 350 mg/kg oral, all animals) was “tremors and tachycardia” and the body weight ([2]; rabbit, 350 mg/kg oral (Group V), study period) was “variation in body weight”. The “gross pathology of the animal that died” value ([2]; rabbit, 350 mg/kg oral, died after 36 hours) was “dark reddish discoloration of the lung suggesting congestion, slight reddish discoloration of the trachea, and mild petechial hemorrhages in the liver”, the mortality ([2]; rabbit, 350 mg/kg oral, six animals per group, within 36 hours) was “one mortality” and the mortality ([2]; rabbit, 50, 125, 250 mg/kg oral) was “No mortalities”. For the same compound, the mean body weight ([2]; rabbit, 50, 125, 250 mg/kg oral (all groups except Group V), 14 days, vs vehicle control) was “consistent increase”, the mean food intake ([2]; rabbit, all treatment groups 50-350 mg/kg, first 48 hours post treatment, vs control) was “reduced” and the gross pathological changes ([2]; rabbit, treated groups 50-350 mg/kg, except the animal that died) was “No gross pathological changes were observed”. The “toxicity and tolerance compared with 1,3-DMPA” value ([2]; single-dose rat and rabbit studies) was “less toxic and better tolerated than 1,3-DMPA”, the LD50 at 14 days [3] was 465 mg/kg and the MTD at 14 days [3] was 150 to 300 mg/kg. For the same compound, the additional clinical signs ([4]; rat, 150 mg/kg and 300 mg/kg oral) was “Tremors and convulsions”, the “examination of the animals that died” value ([4]; rat, 300 mg/kg oral, died 4.5 hours post dosing) was “right median lobe consolidation and red foci on lungs, mild reddish discoloration of adrenals and spleen, mild enlargement of the spleen and glandular mucosa of the stomach showing hyperemia” and the mortality ([4]; rat, 300 mg/kg oral, ten animals per group, within 4.5 hours) was “Four mortalities”. For the same compound, the mean body weight ([4]; rat, 75, 150, 300 mg/kg oral, study period, vs control) was “consistently increased”, the mortality ([4]; rat, 75 and 150 mg/kg oral) was “No mortalities” and the clinical signs ([4]; rat, all treated animals 75, 150, 300 mg/kg oral) was “piloerection, tail elevation, nasal discharge, tachycardia and hyperactivity”. For the same compound, the “gross pathological changes at necropsy” value ([4]; rat, treated groups 75-300 mg/kg oral) was “not observed”, the feed consumption ([4]; rat, treatment groups 75, 150, 300 mg/kg oral, first 48 hours post administration) was “consume less feed” and the appetite [5, 8] was “decreased appetite”. The “effect on heart rate compared with prior 1,3-DMPA” value [5, 8] was “reduced effect on heart rate”, the “jitteriness or anxiousness compared with prior 1,3-DMPA” value [5, 8] was “noticeably reduced feelings of jitteriness or anxiousness” and the “level of CNS stimulation compared with 1,3-DMPA” value [5, 8] was “about the same level of CNS stimulation”. For the same compound, the mood and vigor [5, 8] was “improved mood and vigor”, the “nature of the stimulatory effect” value [5, 8] was “increased focus and alertness and reduced fatigue” and the physical performance [5, 8] was “improved physical performance”. The fat mass ([5]; reports of individuals ingesting the compound) was “reduction in fat mass” and the vasopressor activity [6] was “possesses vasopressor activity”.

In the case of `CCC(C)CC(C)N` (stereo not shown) [1,3-DMPA, 1,3-dimethylpentylamine, reference compound], the LD50 at 14 days [1] is reported as 324 mg/kg, the MTD at 14 days [1] is reported as 150 to 300 mg/kg and the gross pathological observations ([2]; rabbit, 50 mg/kg or 150 mg/kg oral) is reported as “no changes”. The behavioral observations ([2]; rabbit, 50 mg/kg oral) was “did not exhibit any behavioral aberrations”, the clinical signs ([2]; rabbit, 150 mg/kg oral, a few animals, hours 1-6 after administration) was “tremors” and the clinical signs ([2]; rabbit, 300 mg/kg oral) was “nasal discharge, salivation, tremors, convulsions and tachycardia”. For the same compound, the “gross necropsy of animals that died” value ([2]; rabbit, 300 mg/kg oral) was “reddish discoloration in the lungs, multiple watery cyst on the right median lobe of the liver and focal white patches”, the mortality ([2]; rabbit, 300 mg/kg oral, six animals per group, within four hours after dosing) was “four animals in this group died” and the mean body weight ([2]; rabbit, 50, 150, 300 mg/kg oral, 14-day study period) was “consistent increase”. The mean food intake ([2]; rabbit, 50, 150, 300 mg/kg oral, study period) was “normal”, the food intake ([2]; rabbit, treatment groups 50-300 mg/kg, first observations following treatment) was “initial decrease in food intake” and the LD50 at 14 days [3] was 482 mg/kg. For the same compound, the MTD at 14 days [3] was 125 to 250 mg/kg, the additional clinical signs ([4]; rat, 250 mg/kg oral) was “tremors” and the food intake ([4]; rat, 250 mg/kg oral) was “decreased food intake on Day 3”. For the same compound, the necropsy analysis ([4]; rat, 250 mg/kg oral, preterminal mortality) was “hyperemia in the stomach glandular mucosa; congestion of lungs, liver and adrenals; the presence of blood clots in the cranial cavity; and ballooning of the small intestine with reddish yellow fluid”, the mortality ([4]; rat, 250 mg/kg oral, ten animals per group, within 26 hours of dosing) was “One preterminal mortality” and the mean body weight ([4]; rat, 50, 125, 250 mg/kg oral, all treatment groups) was “consistent increase”. The mean food intake ([4]; rat, 50 and 125 mg/kg oral) was “normal”, the mortality ([4]; rat, 50 and 125 mg/kg oral (lower dose groups)) was “no mortalities” and the clinical signs ([4]; rat, all treatment groups 50, 125, 250 mg/kg oral) was “piloerection, tail elevation, nasal discharge and hyperactivity”. The CNS stimulation [5, 9] was “CNS stimulation, including feelings of restlessness and jitteriness”, the appetite [5, 9] was “decreased appetite” and the heart rate [5, 9] was “increased heart rate”. The mood [5, 9] was “improved mood”, the “physical performance during exercise and strength training” value [5, 9] was “improved physical performance” and the vasopressor activity [6] was “exhibit vasopressor or vasoconstriction activity”. For the same compound, the vasopressor effects ([7]; acute oral administration in humans) was “vasopressor effects similar to the effects of caffeine”, the “glycerol and free fatty acid concentration (markers of lipolysis)” value ([7]; humans, following exercise) was “increased levels of these markers of lipolysis” and the blood pressure ([7]; humans) was “increase blood pressure to a modest degree”. The “heart rate and circulating catecholamines (norepinephrine and epinephrine)” value ([7]; humans) was “no effect on heart rate or on circulating catecholamines” and the norepinephrine levels ([7]; humans) was “no effect on norepinephrine levels”.

For `CC(C)CC[C@@H](C)N` [(R)-1,4-DMPA, (R)-1,4-dimethylpentylamine], the CNS stimulation [5, 10] was “CNS stimulation, including feelings of alertness, focus, and reduced fatigue”, the appetite [5, 10] was “decreased appetite” and the “heart rate, jitteriness, nervousness, anxiety” value [5, 10] was “not associated with a noticeable increase in heart rate, jitteriness, nervousness, or anxiety”. For the same compound, the mood [5, 10] was “improved mood”, the physical performance [5, 10] was “improved physical performance” and the CNS stimulant effect [5, 11] was “produced CNS stimulant effect”. For the same compound, the “jitteriness or pressor effect” value [5, 11] was “little or no jitteriness or pressor effect”.

With `CC(C)CC[C@H](C)N` [(S)-1,4-DMPA, (S)-1,4-dimethylpentylamine] the “alertness and focus in comparison to (R)-1,4-DMPA” value [5, 12] was “lessened alertness and focus” and the “heart rate and restlessness in comparison to (R)-1,4-DMPA” value [5, 12] was “increased heart rate and restlessness”.
